Measured values: ChEMBL document CHEMBL4507268 (2021)

Legend:
Details in all cases: Compound concentration 1.0 uM
[1] = biological target: Serine/threonine-protein kinase 25 (Homo sapiens) (UniProt O00506)
[2] = biological target: CDK9/cyclin T1 (Homo sapiens) (UniProt O60563+P50750)
[3] = biological target: T1, Tyrosine-protein kinase ITK/TSK (Homo sapiens) (UniProt Q08881)
T1 sequence (whole entry): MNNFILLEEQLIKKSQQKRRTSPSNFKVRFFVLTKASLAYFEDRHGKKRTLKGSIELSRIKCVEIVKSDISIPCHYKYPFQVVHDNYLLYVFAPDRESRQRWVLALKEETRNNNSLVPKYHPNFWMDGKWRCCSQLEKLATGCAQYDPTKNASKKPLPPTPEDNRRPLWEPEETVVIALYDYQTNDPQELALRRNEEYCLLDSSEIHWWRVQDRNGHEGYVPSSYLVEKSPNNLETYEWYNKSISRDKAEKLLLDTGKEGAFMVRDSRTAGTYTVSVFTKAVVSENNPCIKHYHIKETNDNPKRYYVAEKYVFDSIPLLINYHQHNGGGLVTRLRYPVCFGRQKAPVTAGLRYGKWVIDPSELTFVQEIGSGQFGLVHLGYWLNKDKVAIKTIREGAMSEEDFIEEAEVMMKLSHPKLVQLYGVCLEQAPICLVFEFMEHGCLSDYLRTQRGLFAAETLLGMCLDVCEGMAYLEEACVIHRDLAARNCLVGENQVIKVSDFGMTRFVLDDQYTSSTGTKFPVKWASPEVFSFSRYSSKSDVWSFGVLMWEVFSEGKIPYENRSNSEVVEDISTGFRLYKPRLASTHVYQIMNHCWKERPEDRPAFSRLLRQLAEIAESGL

[4] = biological target: T2, Serine/threonine-protein kinase Nek1 (Homo sapiens) (UniProt Q96PY6)
T2 sequence (whole entry): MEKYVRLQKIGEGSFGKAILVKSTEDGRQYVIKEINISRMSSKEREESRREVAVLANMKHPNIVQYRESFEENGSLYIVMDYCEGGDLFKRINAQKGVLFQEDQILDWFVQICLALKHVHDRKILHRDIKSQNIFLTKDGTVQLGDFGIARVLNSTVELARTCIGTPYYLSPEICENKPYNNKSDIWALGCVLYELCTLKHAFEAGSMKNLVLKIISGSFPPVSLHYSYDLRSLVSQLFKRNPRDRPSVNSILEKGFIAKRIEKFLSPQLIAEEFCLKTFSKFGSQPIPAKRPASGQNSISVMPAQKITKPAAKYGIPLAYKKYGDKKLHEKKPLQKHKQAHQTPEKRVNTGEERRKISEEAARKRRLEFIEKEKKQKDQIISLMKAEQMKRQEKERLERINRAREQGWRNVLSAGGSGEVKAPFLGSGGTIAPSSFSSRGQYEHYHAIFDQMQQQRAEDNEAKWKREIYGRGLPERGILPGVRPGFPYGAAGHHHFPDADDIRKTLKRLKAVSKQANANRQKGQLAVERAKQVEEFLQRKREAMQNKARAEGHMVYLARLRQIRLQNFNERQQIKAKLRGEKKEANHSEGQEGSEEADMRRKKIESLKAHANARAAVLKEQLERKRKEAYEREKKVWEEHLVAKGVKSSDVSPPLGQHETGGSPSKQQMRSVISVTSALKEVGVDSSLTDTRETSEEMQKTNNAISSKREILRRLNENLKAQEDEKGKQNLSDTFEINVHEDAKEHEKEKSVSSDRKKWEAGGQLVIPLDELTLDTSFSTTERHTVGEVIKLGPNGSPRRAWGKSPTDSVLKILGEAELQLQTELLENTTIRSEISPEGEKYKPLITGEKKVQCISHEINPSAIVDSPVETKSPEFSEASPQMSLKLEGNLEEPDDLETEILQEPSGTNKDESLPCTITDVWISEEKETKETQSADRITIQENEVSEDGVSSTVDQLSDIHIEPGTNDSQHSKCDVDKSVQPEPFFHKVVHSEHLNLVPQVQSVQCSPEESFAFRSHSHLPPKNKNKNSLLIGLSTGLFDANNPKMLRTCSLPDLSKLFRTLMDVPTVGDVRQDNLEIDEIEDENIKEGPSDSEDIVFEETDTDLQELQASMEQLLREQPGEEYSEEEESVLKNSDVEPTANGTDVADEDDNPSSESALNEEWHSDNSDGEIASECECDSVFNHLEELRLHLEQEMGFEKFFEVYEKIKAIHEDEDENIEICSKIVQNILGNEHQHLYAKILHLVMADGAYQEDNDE

[5] = biological target: T3, Muscle, skeletal receptor tyrosine-protein kinase (Homo sapiens) (UniProt O15146)
T3 sequence (whole entry): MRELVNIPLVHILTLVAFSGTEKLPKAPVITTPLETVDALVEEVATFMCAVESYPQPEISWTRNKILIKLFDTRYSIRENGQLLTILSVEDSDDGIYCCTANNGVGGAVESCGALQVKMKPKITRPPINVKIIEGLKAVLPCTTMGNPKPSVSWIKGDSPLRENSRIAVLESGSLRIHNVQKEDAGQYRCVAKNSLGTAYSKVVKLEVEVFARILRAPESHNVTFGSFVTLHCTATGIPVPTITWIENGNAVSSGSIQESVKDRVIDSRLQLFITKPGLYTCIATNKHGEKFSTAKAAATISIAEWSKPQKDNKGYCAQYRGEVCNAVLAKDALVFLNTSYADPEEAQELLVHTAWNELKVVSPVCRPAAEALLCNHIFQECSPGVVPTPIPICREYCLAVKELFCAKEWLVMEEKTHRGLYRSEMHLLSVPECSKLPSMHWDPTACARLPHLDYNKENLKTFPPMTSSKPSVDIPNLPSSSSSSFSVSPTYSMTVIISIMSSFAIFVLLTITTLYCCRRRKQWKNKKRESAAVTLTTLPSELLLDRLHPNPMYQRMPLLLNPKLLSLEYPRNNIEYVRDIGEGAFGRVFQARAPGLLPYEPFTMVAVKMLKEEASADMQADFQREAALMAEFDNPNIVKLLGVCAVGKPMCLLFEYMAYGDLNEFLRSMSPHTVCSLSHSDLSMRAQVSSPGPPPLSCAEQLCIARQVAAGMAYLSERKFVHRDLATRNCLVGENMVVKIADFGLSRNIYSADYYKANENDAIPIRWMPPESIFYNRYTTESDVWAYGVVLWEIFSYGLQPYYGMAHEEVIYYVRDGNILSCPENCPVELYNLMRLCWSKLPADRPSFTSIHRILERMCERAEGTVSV

[6] = biological target: Serine/threonine-protein kinase VRK1 (Homo sapiens) (UniProt Q99986)

Measured: % residual kinase activity

Chain of Serine/threonine-protein kinase VRK1 (Homo sapiens) (Q99986 whole entry): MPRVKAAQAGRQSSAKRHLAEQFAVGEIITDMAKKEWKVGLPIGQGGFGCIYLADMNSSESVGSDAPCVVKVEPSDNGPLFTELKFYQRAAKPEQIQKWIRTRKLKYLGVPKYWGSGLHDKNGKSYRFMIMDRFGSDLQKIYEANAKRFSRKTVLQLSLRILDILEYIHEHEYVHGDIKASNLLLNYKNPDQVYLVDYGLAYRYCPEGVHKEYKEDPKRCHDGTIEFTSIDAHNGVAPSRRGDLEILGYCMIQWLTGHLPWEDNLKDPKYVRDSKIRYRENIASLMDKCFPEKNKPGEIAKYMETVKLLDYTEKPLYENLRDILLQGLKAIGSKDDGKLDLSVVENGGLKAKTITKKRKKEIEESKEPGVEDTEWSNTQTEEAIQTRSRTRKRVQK
Chain of Serine/threonine-protein kinase 25 (Homo sapiens) (O00506 whole entry, looked up): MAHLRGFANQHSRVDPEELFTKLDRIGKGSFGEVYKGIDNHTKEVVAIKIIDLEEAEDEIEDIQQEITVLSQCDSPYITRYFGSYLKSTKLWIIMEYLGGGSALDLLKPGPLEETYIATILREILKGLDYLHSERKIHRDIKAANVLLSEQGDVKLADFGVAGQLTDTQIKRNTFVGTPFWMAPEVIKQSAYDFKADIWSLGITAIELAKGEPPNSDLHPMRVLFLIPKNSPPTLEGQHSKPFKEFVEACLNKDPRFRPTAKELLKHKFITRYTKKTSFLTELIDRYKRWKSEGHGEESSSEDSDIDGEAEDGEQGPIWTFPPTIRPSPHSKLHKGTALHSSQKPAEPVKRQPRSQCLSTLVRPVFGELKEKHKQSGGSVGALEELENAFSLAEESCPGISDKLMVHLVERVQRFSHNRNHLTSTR

CN1CCN(c2cnc3c(C4CCN(C(=O)c5ccc(OC(F)(F)F)cc5N)CC4)ncnc3c2)CC1 [BAY-885]
inactive: [1] 87% | [2] 103% | [3] 105% | [4] 98% | [5] 130% | [6] 100%
